Measurements from patent US10189862B2, “Phenothiazine-pyridine compounds and uses thereof” (The Chinese University of Hong Kong, priority 2016, dated 2019).
Like-named read-outs stand apart in the source and are kept apart here.

Legend:
[1] = UV-Visible and fluorescence spectrometry; type: physicochemical; details: for λmax(nm)in EtOH: UV-Vis absorption maximum in EtOH; for Log ε: UV-Vis in EtOH; for λEm (nm): fluorescence emission, excited at 610 nm
Experimental: (§1) All of the new prepared phenothiazine-pyridine compounds are deep blue solid, the basic physiochemical properties are measured by UV-Visible and fluorescence spectrometry. […] The maximum absorption is about 650 nm in ethanol, and they are varied based on the compound structure. The fluorescence emission is about 680 nm when excited at 610 nm. All of these compounds have relatively high quantum yield, they are promising diagnostic and imaging agents. The lipophilicity is determined by the partition coefficient (log P), which can be obtained by measuring the UV-Vis absorption of the compound in phosphate buffer saline (PBS) before and after the partition equilibrium between n-octanol and PBS solution, and then calculated following the equation of: Log p=Log [(Abefore/Aafter)−1]. Wherein Abefore and Aafter are the absorption values in PBS solution before and after partition.

[2] = Partition coefficient (log P) between n-octanol and PBS by UV-Vis absorption; type: physicochemical
Experimental: as §1

[3] = test system: normal fibroblast WI38 cells; assay: Dark toxicity, MTT assay; type: cell-based; details: Homo sapiens, read-out: IC50 dark toxicity
Experimental: (§2) Cell lines and culture conditions: A549, HT29, MCF-7, MDA-MB-231 cell lines were maintained in RPMI1640 supplemented with fetal bovine serum (10%) and penicillin-streptomycin solution (1%), and WI38 cells were maintained in DMEM supplemented with fetal bovine serum (10%) and penicillin-streptomycin solution (1%). Approximately 1×10^4 (for A549, HT29, MCF-7, MDA-MB-231) or 1.5×10^4 (for WI38) cells per well were seeded in 96-well plate and incubated overnight light at 37° C. in a humidified atmosphere with 5% CO2.
(§3) Dark toxicity: Cells were incubated with different concentrations of photosensitive drug for 24 h in dark, and the cell viabilities were determined by MTT assay
The IC50 values (50% inhibitory concentration) of the prepared phenothiazine-pyridine compounds 8, 14, 15, 16, 17, 18, 19, 20, 21, 22, 23, and 24 to normal fibroblast cell line WI38 were measured by MTT assay.

A549 cell line [4] = assay: Photocytotoxicity (PDT), MTT assay; type: cell-based; details: Homo sapiens, read-out: IC50 PDT
Experimental: as §2
(§4) Photocytotoxicity: Cells were incubated with different concentrations of photosensitive drug for 1 h in the dark, then the medium in the well was sucked by a syringe, and washed by PBS. Then a solution of new medium was added, and illuminated by light. After irradiation, the cells were incubated under dark at 37° C. for another 24 h, and the cell viabilities were determined by MTT assay.

HT29 cell line [5] = assay: Photocytotoxicity (PDT), MTT assay; type: cell-based; details: Homo sapiens, HT-29, light or radiation study, read-out: IC50 PDT
Experimental: as §2, §4

MCF7 cell line [6] = assay: Photocytotoxicity (PDT), MTT assay; type: cell-based; details: Homo sapiens, read-out: IC50 PDT
Experimental: as §2, §4

A549 cell line [7] = assay: Dark toxicity, MTT assay; type: cell-based; details: Homo sapiens, read-out: IC50 DK
Experimental: as §2, §3

HT29 cell line [8] = assay: Dark toxicity, MTT assay; type: cell-based; details: Homo sapiens, read-out: IC50 DK
Experimental: as §2, §3

MCF7 cell line [9] = assay: Dark toxicity, MTT assay; type: cell-based; details: Homo sapiens, read-out: IC50 DK
Experimental: as §2, §3

S. aureus [10] = assay: Dark toxicity of photosensitizers on bacteria, CFU count; type: cell-based, Staphylococcus aureus; details: absence of light, 6 h
Experimental: (§5) Bacterial growth and culture: Gram-positive S. aureus or Gram-negative E. coli were grown on trypticase soy agar (TSA) for 24 h, then a colony was transferred into tryptica soy broth (TSB) and grown at 37° C. overnight at a 200 rpm speeds of shaking-up using a shaker incubator. The nutrient medium was centrifuged for 5 min at 8000 rpm and diluted by sterile 0.85% saline (pH 7.5) to concentrations of 10^8 CFU/ml, which was used for further incubation with photosensitizers in the following experiments.
(§6) Dark toxicities of the photosensitizers on bacteria: Bacterial suspensions were incubated with photosensitizers at various concentrations at 37° C. in the dark for 6 h. After that, 100 uL of cell suspension were spread on the TSA in 10-fold serial dilutions. Colony forming unit (CFU) was counted after incubation for 24 h at 37° C.

E. coli [11] = assay: as above; type: cell-based, Escherichia coli; details: absence of light, 6 h
Experimental: as §5, §6

MDA-MB-231 cells = assay: Light dosage dependent photocytotoxicity, 635 Laser; type: cell-based; details: MDA-MB-231, 635 Laser
Experimental: as §2, §4
[…] After incubation for a further 24 h, 3-(4,5-Dimethylthiazol-2-yl)-2,5-diphenyltetrazolium bromide (MTT) were added and the cells were incubated for another 4 h. The medium were sucked by syringe, and dimethyl sulfoxide (DMSO) was added to fully dissolve the crystals, the optical density (OD) values were measured with a microplate reader, and the data were analyzed by GraphPad Prism 6.

S. aureus [12] = assay: Photodynamic inactivation of bacteria, CFU count; type: cell-based, Staphylococcus aureus
Experimental: as §5
(§7) Photodynamic inactivation of bacteria: Bacterial suspensions (2×10^8 CFU/ml) were co-incubated with different concentrations of the photosensitizer for 10 min at 37° C., and then centrifuged, washed once with normal saline and resuspended in PBS saline. Aliquots of this suspension were placed into 24-well flat bottom plate and illuminated with laser light. After illumination, 100 uL of cell suspension were spread on the TSA in 10-fold serial dilutions and colony forming unit (CFU) was counted after incubation for 24 h at 37° C.

E. coli [13] = assay: Photodynamic inactivation of bacteria, CFU count; type: cell-based, Escherichia coli
Experimental: as §5, §7

| Structure (SMILES) | λmax(nm)in EtOH [1] | Log ε [1] | λEm (nm) [1] | logP [2] | IC50 ([3]; WI-38, 24 h) | IC50 (A549 cell line [4]; A549, light or radiation study) | IC50 (HT29 cell line [5]) | IC50 (MCF7 cell line [6]; MCF7, light or radiation study) | IC50 (A549 cell line [7]; A549, 24 h) | IC50 (HT29 cell line [8]; HT-29, 24 h) | IC50 (MCF7 cell line [9]; MCF7, 24 h) | dark toxicity (S. aureus [10]) | dark toxicity (E. coli [11]) | other results |
| --- | --- | --- | --- | --- | --- | --- | --- | --- | --- | --- | --- | --- | --- | --- |
| CCN(CC)c1ccc2nc3c(cc(N)c4nc(C)ccc43)[s+]c2c1 [Compound 8, 5-amino-9-(diethylamino)-3-methylpyrido[3,2-a]phenothiazin-7-ium chloride] | 658 nm | 4.93 | 680 nm | 0.97 | > 10 µM | 1.8 µM | 0.21 µM | 0.5 µM | 6.5 µM | 4.6 µM | 1.1 µM | essentially non-toxic | essentially non-toxic |  |
| CCCNc1cc2[s+]c3cc(N(CC)CC)ccc3nc2c2ccc(C)nc12.[Cl-] [Compound 14, 9-(diethylamino)-3-methyl-5-(propylamino)pyrido[3,2-a]phenothiazin-7-ium chloride] | 666 nm | 5.01 | 684 nm | 1.34 |  |  |  |  |  |  |  | essentially non-toxic | essentially non-toxic | IC50 ([3]; WI-38, WI38 cells, 24 h under dark, MTT): > 10 µM; IC50 (A549 cell line [4]; light or radiation study, A549, 1 h incubation, 630 nm LED light 30 s, 3.2 J/cm^2, 24 h, MTT): 0.34 µM; IC50 (HT29 cell line [5]; HT29, 1 h incubation, 630 nm LED light 30 s, 3.2 J/cm^2, 24 h, MTT): 0.039 µM; IC50 (MCF7 cell line [6]; light or radiation study, MCF7, 1 h incubation, 630 nm LED light 30 s, 3.2 J/cm^2, 24 h, MTT): 0.37 µM; IC50 (A549 cell line [7]; A549, 24 h under dark, MTT): 3.1 µM; IC50 (HT29 cell line [8]; HT-29, HT29, 24 h under dark, MTT): 2.1 µM; IC50 (MCF7 cell line [9]; MCF7, 24 h under dark, MTT): 1.9 µM; photocytotoxicity vs light dosage (MDA-MB-231 cells): light dosage dependent photocytotoxicity; photocytotoxicity vs light dosage (S. aureus [12]; 0.5 uM drug): light dosage dependent; eradication (S. aureus [12]; 0.5 uM, 30 J/cm^2): about 99.9999%; log 10-reduction (S. aureus [12]; 0.5 uM, 30 J/cm^2): ~6 log 10-reduction; photocytotoxicity vs light dosage (E. coli [13]; 6 uM drug): light dosage dependent; eradication (E. coli [13]; 6 uM, 50 J/cm^2): about 99.999%; log 10-reduction (E. coli [13]; 6 uM, 50 J/cm^2): ~5 log 10-reduction |
| CCCCCNc1cc2[s+]c3cc(N(CC)CC)ccc3nc2c2ccc(C)nc12 [Compound 15, 9-(diethylamino)-3-methyl-5-(pentylamino)pyrido[3,2-a]phenothiazin-7-ium chloride] | 651 nm | 4.91 | 684 nm | 1.4 | > 10 µM |  |  |  |  |  |  |  |  |  |
| CCCCCCCNc1cc2[s+]c3cc(N(CC)CC)ccc3nc2c2ccc(C)nc12 [Compound 16, 9-(diethylamino)-5-(heptylamino)-3-methylpyrido[3,2-a]phenothiazin-7-ium chloride] | 651 nm | 4.89 | 684 nm | 1.44 | > 10 µM |  |  |  |  |  |  |  |  |  |
| CCCCCCCCCCNc1cc2[s+]c3cc(N(CC)CC)ccc3nc2c2ccc(C)nc12 [Compound 17, 5-(decylamino)-9-(diethylamino)-3-methylpyrido[3,2-a]phenothiazin-7-ium chloride] | 651 nm | 4.89 | 684 nm | 2.49 | 7 µM |  |  |  |  |  |  |  |  |  |
| CCN(CC)c1ccc2nc3c(cc(NC)c4nc(C)ccc43)[s+]c2c1 [Compound 18, 9-(diethylamino)-3-methyl-5-(methylamino)pyrido[3,2-a]phenothiazin-7-ium chloride] | 649 nm | 4.70 | 683 nm | 1.31 | 5 µM |  |  |  |  |  |  |  |  |  |
| CCCN(CCC)c1cc2[s+]c3cc(N(CC)CC)ccc3nc2c2ccc(C)nc12 [Compound 19, 9-(diethylamino)-5-(dipropylamino)-3-methylpyrido[3,2-a]phenothiazin-7-ium chloride] | 675 nm | 4.67 | 684 nm | 1.42 | 9.4 µM |  |  |  |  |  |  |  |  |  |
| CCCCCN(CCCCC)c1cc2[s+]c3cc(N(CC)CC)ccc3nc2c2ccc(C)nc12 [Compound 20, 9-(diethylamino)-5-(dipentylamino)-3-methylpyrido[3,2-a]phenothiazin-7-ium chloride] | 676 nm | 4.89 | 700 nm | 1.48 | > 10 µM |  |  |  |  |  |  |  |  |  |
| CCN(CC)c1ccc2nc3c(cc(NCCCN)c4nc(C)ccc43)[s+]c2c1 [Compound 21, 5-(3-aminopropylamino)-9-(diethylamino)-3-methylpyrido[3,2-a]phenothiazin-7-ium chloride] | 668 nm | 4.82 | 686 nm | 0.64 | > 10 µM |  |  |  |  |  |  |  |  |  |
| CCN(CC)c1ccc2nc3c(cc(NCCCNC)c4nc(C)ccc43)[s+]c2c1 [Compound 22, 9-(diethylamino)-3-methyl-5-(3-(methylamino)propylamino) pyrido[3,2-a]phenothiazin-7-ium chloride] | 658 nm | 4.81 | 686 nm | 0.65 | > 10 µM | 11.9 µM | 0.51 µM | 3.1 µM | 19.8 µM | 9.5 µM | 13.2 µM |  |  |  |
| CCCNc1c(I)c2[s+]c3cc(N(CC)CC)ccc3nc2c2ccc(C)nc12 [Compound 23, 9-(diethylamino)-6-iodo-3-methyl-5-(propylamino)pyrido[3,2-a]phenothiazin-7-ium chloride] | 633 nm | 4.87 | 666 nm | 1.48 | 5.2 µM | 0.68 µM | 0.071 µM | 0.12 µM | 3.3 µM | 2 µM | 0.9 µM | essentially non-toxic | essentially non-toxic |  |
| CCCCN(CCCC)c1ccc2nc3c(cc(NCCC)c4nc(C)ccc43)[s+]c2c1 [Compound 24, 9-(dibutylamino)-3-methyl-5-(propylamino)pyrido[3,2-a]phenothiazin-7-ium chloride] | 654 nm | 4.86 | 688 nm | 3.4 | > 10 µM | 0.1 µM | 0.074 µM | 0.077 µM | 0.85 µM | 0.84 µM | 0.85 µM | essentially non-toxic | essentially non-toxic |  |
